{"source": "patent US20240336934A1", "about": "“CRISPR/CAS9-BASED COMPOSITIONS AND METHODS FOR TREATING RETINAL DEGENERATIONS” (The Johns Hopkins University, priority 2016, published 2024)", "key": {"primary RGCs [1]": {"tested_on": "primary RGCs", "test": "Primary RGC survival (CellTiter-Glo) after immunopanning / colchicine", "assay_type": "cell-based, mouse", "conditions": "combined knockdown of both DLK and LZK", "text": "For this screen, a high-throughput method was developed for knocking down gene expression in primary RGCs, from male and female C57Bl/6 mice (7), with small interfering RNA oligonucleotides (siRNAs) and coupled it with a quantitative assay of RGC survival (CellTiter-Glo, Promega) (5).\nIn order to identify these other targets, the kinome screen was modified to include Dlk siRNA in every well and sensitize it to those library siRNAs that synergized with DLK knockdown to further increase RGC survival (FIG. 19A). The other modification was to allow 48 hours for extant protein turnover, before exacerbating the immunopanning injury with colchicine, a microtubule destabilizer that has been used to model axon injury in vitro and in vivo (15, 16)."}, "hESC-derived RGCs": {"tested_on": "hESC-derived RGCs", "test": "Survival of hESC-derived RGCs after colchicine challenge", "assay_type": "cell-based, human", "conditions": "two days after colchicine (1 μM); tozasertib (1 μM), Genentech inhibitor 123 (0.1 μM)", "description": "FIG. 69A depicts survival (±SD) of hESC-derived RGCs two days after a challenge with vehicle or colchicine (1 μM) in the presence of the DLK/LZK inhibitors tozasertib (1 μM), Genentech inhibitor 123 (0.1 μM) or a vehicle control. FIG. 69B depicts survival (±SD) of hESC-derived RGCs two days after a challenge with colchicine (1 μM) in the presence of increasing doses of sunitinib."}, "primary RGCs [2]": {"tested_on": "primary RGCs", "conditions": "compared with DLK knockdown or knockout alone; cited from earlier work"}, "RGCs": {"tested_on": "RGCs", "conditions": "rat optic nerve transection and glaucoma models; cited from earlier work"}, "DLK [3]": {"molecular_target": "T1, DLK (Homo sapiens, UniProt Q12852)", "T1 sequence (Q12852 1-859)": "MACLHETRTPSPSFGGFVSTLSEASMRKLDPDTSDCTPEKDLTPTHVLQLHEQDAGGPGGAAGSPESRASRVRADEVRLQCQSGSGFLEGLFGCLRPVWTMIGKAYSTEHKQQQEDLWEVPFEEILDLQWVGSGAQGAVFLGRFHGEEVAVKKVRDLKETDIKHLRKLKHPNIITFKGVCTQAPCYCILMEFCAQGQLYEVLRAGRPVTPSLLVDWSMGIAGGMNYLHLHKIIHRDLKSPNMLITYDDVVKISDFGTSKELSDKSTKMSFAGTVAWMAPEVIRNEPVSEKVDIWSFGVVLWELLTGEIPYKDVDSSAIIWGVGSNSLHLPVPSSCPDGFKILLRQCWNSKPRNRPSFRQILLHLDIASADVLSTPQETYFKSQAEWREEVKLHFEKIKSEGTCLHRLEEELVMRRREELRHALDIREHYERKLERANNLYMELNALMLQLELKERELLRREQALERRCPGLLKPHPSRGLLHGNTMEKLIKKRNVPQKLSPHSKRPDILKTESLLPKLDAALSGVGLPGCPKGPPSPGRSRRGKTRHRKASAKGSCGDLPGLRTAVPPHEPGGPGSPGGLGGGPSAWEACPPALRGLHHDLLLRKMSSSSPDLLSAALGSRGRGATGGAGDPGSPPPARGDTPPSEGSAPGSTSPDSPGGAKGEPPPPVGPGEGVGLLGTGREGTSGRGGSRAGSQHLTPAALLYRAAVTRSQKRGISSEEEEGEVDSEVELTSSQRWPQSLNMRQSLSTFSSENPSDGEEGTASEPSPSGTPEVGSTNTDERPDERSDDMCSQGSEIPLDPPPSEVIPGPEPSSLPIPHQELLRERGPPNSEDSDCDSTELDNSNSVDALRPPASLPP", "conditions": "published kinase inhibitor profiling data; cited from earlier work"}, "LZK": {"molecular_target": "T2, LZK (Homo sapiens, UniProt O43283)", "T2 sequence (O43283 1-966)": "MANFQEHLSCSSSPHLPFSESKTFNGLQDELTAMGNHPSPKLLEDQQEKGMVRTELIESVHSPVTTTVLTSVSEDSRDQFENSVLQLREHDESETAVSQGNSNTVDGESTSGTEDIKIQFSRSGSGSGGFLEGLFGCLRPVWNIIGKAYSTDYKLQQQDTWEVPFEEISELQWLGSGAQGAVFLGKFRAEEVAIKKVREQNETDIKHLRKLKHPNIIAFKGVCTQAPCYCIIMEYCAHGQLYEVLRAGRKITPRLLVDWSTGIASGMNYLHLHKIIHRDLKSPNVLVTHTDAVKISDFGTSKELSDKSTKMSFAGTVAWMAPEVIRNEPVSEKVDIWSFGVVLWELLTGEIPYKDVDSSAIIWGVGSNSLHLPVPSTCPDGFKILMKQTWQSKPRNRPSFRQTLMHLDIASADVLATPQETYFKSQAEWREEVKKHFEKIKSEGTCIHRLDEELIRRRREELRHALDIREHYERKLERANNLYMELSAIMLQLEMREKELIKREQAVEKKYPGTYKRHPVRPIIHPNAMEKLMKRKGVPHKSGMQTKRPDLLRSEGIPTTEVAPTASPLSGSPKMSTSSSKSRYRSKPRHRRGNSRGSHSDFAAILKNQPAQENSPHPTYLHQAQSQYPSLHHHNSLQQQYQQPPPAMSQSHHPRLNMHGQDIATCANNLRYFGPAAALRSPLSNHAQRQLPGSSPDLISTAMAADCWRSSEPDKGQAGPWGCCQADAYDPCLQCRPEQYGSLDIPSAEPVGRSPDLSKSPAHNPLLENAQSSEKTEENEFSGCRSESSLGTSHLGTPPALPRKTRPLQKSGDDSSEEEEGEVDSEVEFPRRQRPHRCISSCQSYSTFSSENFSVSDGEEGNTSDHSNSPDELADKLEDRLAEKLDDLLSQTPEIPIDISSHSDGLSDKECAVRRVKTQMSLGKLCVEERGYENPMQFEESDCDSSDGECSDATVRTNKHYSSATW", "conditions": "published kinase inhibitor profiling data; cited from earlier work"}, "Dlk [4]": {"tested_on": "Dlk", "test": "scAAV/lentivirus transduction of RGCs from Cas9 mouse; BglII assay for Dlk gene editing", "assay_type": "cell-based", "conditions": "gRNA delivered by ssAAV, Cas9 present from the mouse", "text": "Cells were harvested from the Cas9 mouse, and transduced in vitro. […] The construct was packaged to produce a self-complementary AAV (scAAV). […] Cells were harvested from the Cas9 mouse, and transduced in vitro. […] The gRNA (mm079) was delivered by ssAAV and Cas9 was present from the mouse\nTitration of scAAV virus transducing either WT RGC or RGCs derived from the Cas9 mouse. […] In this assay, we are assaying for cutting by loss of a restriction enzyme site. […] A construct was generated using the H1 promoter to express a gRNA (shown in black) and mCherry simultaneously. […] The construct was packaged to produce a self-complementary AAV (scAAV).\nTo test this system, an AAV construct was generated that used the H1 promoter to express an mCherry-histone 2B fusion in the Pol II direction and the Dlk #4 gRNA (5′[sequence] 3′ (SEQ ID NO: 163)), which conveniently targets a BglII site (FIGS. 19G and 1H), in the Pol III direction (Dlk gRNA:H1:H2B-mCherry). […]\nFor restriction analysis, genomic DNA was extracted by resuspending cells in QuickExtract solution (Epicentre, Madison, WI), incubating at 65° C. for 20 min, and then at 98° C. for 20 min. The extract solution was used directly or cleaned using DNA Clean and Concentrator (Zymo Research, Irvine, CA), and quantitated by NanoDrop (Thermo 30 Fisher Scientific)."}}}
{"molecule": "Cc1cc(Nc2cc(N3CCN(C)CC3)nc(Sc3ccc(NC(=O)C4CC4)cc3)n2)[nH]n1", "note": "[tozasertib]", "values": [{"measurement": "RGC survival on addition of drug to combined knockdown of DLK and LZK", "setting": "primary RGCs [1]", "value": "had no effect"}, {"measurement": "survival of hESC-derived RGCs", "setting": "hESC-derived RGCs", "value": "promotes the survival of human ESC-derived RGCs"}, {"measurement": "RGC survival in vitro", "setting": "primary RGCs [2]", "value": "consistently improved RGC survival in vitro more than DLK knockdown or knockout alone"}, {"measurement": "protection of RGCs", "setting": "RGCs", "value": "protected RGCs in both the rat optic nerve transection and glaucoma models"}, {"measurement": "inhibitor of DLK", "setting": "DLK [3]", "value": "identified as an inhibitor of DLK"}, {"measurement": "inhibition of LZK", "setting": "LZK", "value": "does inhibit LZK"}]}
{"molecule": "GAAGAAGGTTCGAGATCTCAAGG (chemistry not given here) [mm079]", "values": [{"measurement": "targeting as detected by a BglII assay", "setting": "Dlk [4]", "value": "~100", "unit": "%"}]}
